Experimental data from US8916607B2, “Use of piperphentonamine or salts thereof in manufacture of medicaments for treating brain diseases” (Guangzhou Municipal Zhongwei Biotechnology Limited Company, priority 2009, dated 2014).
Marks after values point to notes of the source that are not given here.

Key:
[1] = system: cerebral edema of mice caused by closed cerebral trauma; test: closed cerebral trauma model of mice, brain water content; format: in vivo, Kunming mice; conditions: brain taken after 24 h
Description: There were 10 mice in each group.
The closed cerebral trauma model of mice being established after fasting for 16 hours, administering intravenously to each group, striping and taking the brain of mouse after 24 hours, weighing the wet weight, and drying at 70° C. for 24 hours, then weighing the dry weight, and calculating brainwater content; the brain water content which is higher than normal values indicates the cerebral edema.
The grouping method, administer method and model preparation were referred to example 2.

[2] = system: learning and memory dysfunction caused by cerebral ischemia reperfusion; test: platform-diving experiment in dementia model of mice caused by ischemia reperfusion; format: in vivo, Kunming mice; conditions: for memory achievement Error times / Learning achievement Error times: in 5 min; for memory achievement Error times: test-retest period; for Learning achievement Error times: training period
Description: The animals were randomly divided into five groups: sham operation group, model group, piperphentonamine hydrochloride 1 mg/kg group, 2 mg/kg group, 4 mg/kg group. There were 10 mice in each group.
After the mice were fasted for 16 hours, we established the dementia model of mice caused by ischemia reperfusion. The preparatory steps were proceeded as follows: anesthetizing mouse by sodium pentobarbital (60 mg/kg, ip), supinely immobilizing on a board, incising on the midmost of neck, isolating bilateral common carotid artery, and threading with zero-size silk thread. Afterwards, operation steps were proceeded as follows: blocking the blood flow of bilateral common carotid artery for 10 min, then resuming the blood flow for 10 min, repeating the blocking/resuming steps for 3 times, and suturing the skin. The mice were put in normal feeding conditions. Bilateral common carotid artery is only isolated for sham operation group.
After ischemia reperfusion for 10 min, the drugs are injected on tail vein, after ischemia reperfusion for 24 h, administering for the second time. Carrying on the platform-diving experiment after administering for half an hour. The mice under test are put into the platform-diving instrument, adapting the environment for 3 min, and then the bottom plate being electrified, observing the time when the mouse jump onto the high platform (reaction time) and the times which the mouse jump down from the high platform and are shocked by electricity in 5 min (the number of errors in the training period). After 24 h, administering again, then carry on the second platform-diving experiment to measure the function of obtaining memory. Putting the mouse on the platform of experimental instrument, electrifying the bottom plate at the same time, recording the time when the mouse jump down from the high platform (latency) and the times which shock by electricity in 5 min (the times of error in test-retest period).

[3] = system: ischemia reperfusion injury of mouse brain; test: SOD activity, MDA and GSH content of brain homogenate after cerebral ischemia reperfusion; format: in vivo, Kunming mice
Description: Ischemia reperfusion method in the mouse and the administration method are the same as above. After ischemia reperfusion is completed, executing by decollating, removing the brain and making homogenate by phosphate buffer in 0° C., determining the activity of SOD by pyrogallol autoxidation method, the content of MDA by TBA method, and the content of GSH by DTNB method, quantitate the protein by Coomassie brilliant blue method.

[4] = system: infective brain edema of rats (pertussis bacteria liquid); test: infective cerebral edema by pertussis bacteria liquid: brain water, sodium and potassium ion content; format: in vivo, SD rats; set-up: Na^+ / K^+: unit not given here; conditions: pretreatment 0.5 mg/kg iv daily, two days; 4 h after bacteria liquid
[5] = system: cerebral ischemia/reperfusion injury in mice; test: focal cerebral ischemia reperfusion injury model in mice (suture method), TTC infarction area; format: in vivo; conditions: ischemia 2 h, reperfusion 24 h
Description: Focal cerebral ischemia reperfusion injury model is made in mice by using suture method, being ischemia for 2 h, then reperfusing for 24 h, and it proves that piperphentonamine hydrochloride has protective effect on ischemia-reperfusion cerebral injury.
Mouse is anesthetized by injecting 10% chloral hydrate (350 mg/kg) in intraperitoneal, being intravenously administered 1 mg/kg, 5 mg/kg piperphentonamine hydrochloride or 20 u/kg coenzyme A, (COA), making the cerebral artery ischemia like as the method of example 6. Pulling out nylon thread from the internal carotid artery after the operation in 2 hours, until the end of the nylon thread is at bifurcation of the common carotid artery. Reperfusing for 24 hours. Except for not inserting a thread, the rest of steps for the false operation group are same as the above-mentioned. After reperfusion for 24 h, decapitating and taking the brain of survived mice, rapidly putting in −20° C. freezer for 5 min, then removing, quickly cutting coronal slices of 2.0 mm thickness from forward to back on the operating table, putting the slices in phosphate buffer solution with 1% TTC immediately, incubating for 30 min in avoiding light at room temperature. Flip brain slices to make them touch staining solution uniformly every 10 minute, and scanning and observing the dyeing results.
The local cerebral ischemia model of mice was established by using thread bolt method, to validate that piperphentonamine acetate has protective effect on experimental cerebral ischemia animal.

[6] = system: cerebral hemorrhage in rats induced by collagenase; test: ICH model induced by collagenase: histopathological observation; format: in vivo, Wistar rats; conditions: large dose (2 mg/kg) pretreatment
Description: Influence of piperphentonamine hydrochloride on pathological morphology of cerebral hemorrhage in rats was observed. Each group animals were selected randomly, anesthetized deeply by chloral hydrate at predetermined time point, decollated and the brain were taken out rapidly, then, the brain tissue slices with hematoma (about 5 mm) were cut, and put into 10% formaldehyde solution immediately, fixed for 24 h followed by dehydration by graded ethanol, transparentizing by xylene, immersing in paraffin, embedding, slicing (5 μm), HE staining and sealing. The pathological changes area and the pathological change of the adjacent brain tissue were observed by optical microscope.

[7] = system: cerebral hemorrhage in rats induced by collagenase; test: ICH model induced by collagenase: NO in brain tissue by nitrate reductase method; format: in vivo, Wistar rats
Text: Rats in each group were anesthetized by chloral hydrate, decollated rapidly and the brain take were taken out. The brain tissue around the hole was cut and procured, weighed precisely, and made into a 10% tissue homogenate using a glass homogenizer in an ice bath environment with physiological saline as homogenized medium, the supernatant of which was taken to be determined the content of NO by nitrate reductase method.

human brain disease = test: research in treating human brain diseases (no details); format: in vivo

## CN(CCC(=O)/C=C/c1ccc(O)cc1)CCc1ccc2c(c1)OCO2.Cl [piperphentonamine hydrochloride, Piperphentonamine hydrochloride]
[1]; 1 mg/kg iv
  water content of cerebra (%): 82.05 ± 7.57 %
[1]; 2 mg/kg iv
  water content of cerebra (%): 78.67 ± 5.38 %
[1]; 4 mg/kg iv
  water content of cerebra (%): 75.43 ± 8.38 %
[2]; 1 mg/kg tail vein
  Learning achievement Reaction time s: 16.53 ± 11.75 s
  memory achievement latency s: 249.84 ± 133.55 s
  memory achievement Error times: 1.31 ± 0.58
  Learning achievement Error times: 5.37 ± 3.63
[2]; 2 mg/kg tail vein
  Learning achievement Reaction time s: 13.34 ± 8.85 s
  memory achievement latency s: 308.13 ± 97.73 s
  memory achievement Error times: 0.73 ± 0.58
  Learning achievement Error times: 5.08 ± 3.34
[2]; 4 mg/kg tail vein
  Learning achievement Reaction time s: 7.11 ± 4.06 s
  memory achievement latency s: 352.79 ± 141.5 s
  memory achievement Error times: 0.58 ± 1.45
  Learning achievement Error times: 4.5 ± 3.05
[3]; 20 mg/kg
  GSH: 10.34 ± 3.17 mg/g pr
  MDA: 4.48 ± 1.03 nmol/g pr
  SOD: 0.34 ± 0.02 Ku/g pr
[3]; 40 mg/kg
  GSH: 13.1 ± 4.34 mg/g pr
  MDA: 3.74 ± 0.67 nmol/g pr
  SOD: 0.37 ± 0.02 Ku/g pr
[3]; 80 mg/kg
  GSH: 14.77 ± 4.61 mg/g pr
  MDA: 3.53 ± 0.76 nmol/g pr
  SOD: 0.42 ± 0.04 Ku/g pr
[4]
  K^+: 436.3 ± 43.9
  Na^+: 181.1 ± 26.1
  water content of brain (%): 69.8 ± 0.44^3) %
[5]; 1 mg/kg iv
  The percentage of infarction area occupied the entire coronal plane (%): 19.78 ± 2.61 %
[5]; 5 mg/kg iv
  The percentage of infarction area occupied the entire coronal plane (%): 16.55 ± 2.32 %
[6]
  pathological morphology of cerebral hemorrhage: tissue edema and inflammatory cell infiltration after cerebral hemorrhage were reduce obviously
[7]; 2 mg/kg, ICH rat brain tissue
  NO: 1.65 ± 0.03^Δ μmol/g pro
[7]; high and low dose groups (2, 0.5 mg/kg)
  NO content in brain tissue: could decrease the NO content in brain tissue
Human brain disease
  treating human brain and other diseases: obvious effect and clinical significance
